Assay results as given in patent US6737383B1, “Herbicidal oxadiazolidines” (priority 1999, dated 2004).

Tests used:
Details in all cases: Preemergence, 0 to 100 scale
purple nutsedge = assay: Test D purple nutsedge; format: in vivo, Cyperus rotundus
From the text: (§1) Seeds, tubers, or plant parts of Alexandergrass (Brachiaria plantaginea), bermuda-grass (Cynodon dactylon), common pursiane (Portulaca oleracea), common ragweed (Ambrosia elatior), common groundsel (Senecio vulgaris), dallisgrass (Paspalum dilatatum), goosegrass (Eleusine indica), guineagrass (Panicum maximum), itchgrass (Rottboellia exaltata), Johnson grass (Sorghum halepense), large crabgrass (Digitaria sanguinalis), pitted morningglory (Ipomoea lacunosa), purple nutsedge (Cyperus rotundus), sandbur (Cenchrus echinatus), sourgrass (Trichachne insularis), Spanishneedles (Bidens bipinnata), surinam grass (Brachiaria decumbens) and tall mallow (Malva sylvestris) were planted into greenhouse pots of flats containing greenhouse planting medium. Plant species were grown in separate pots or individual compartments. Preemergence applications were made within one day of planting the seed or plant part.
(§2) Test chemicals were formulated in a non-phytotoxic solvent mixture which included a surfactant and applied preemergence to the surface of the pot containing seeds in a sandy loam soil. Untreated control pots and treated pots were placed in the greenhouse for growth and visually evaluated for injury 14 to 21 days after herbicide application. Plant response ratings, summarized in Table C, are based on a 0 to 100 scale where 0 is no injury and 100 is complete control. A dash (−) response means no test result.

Alexandergrass = assay: Test D Alexandergrass; format: in vivo, Brachiaria plantaginea
From the text: as §1, §2

guineagrass = assay: Test D guineagrass; format: in vivo, Panicum maximum
Outline: (§3)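 Herbicide screen in the greenhouse. A non-phytotoxic solvent mixture with surfactant carried the test chemical; in pre-emergence tests it went onto the soil of pots seeded no more than a day earlier. Injury was scored by eye 14 to 21 days after application, 0 to 100.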

surinam grass = assay: Test D surinam grass; format: in vivo, Brachiaria decumbens
From the text: as §1, §2

dallisgrass = assay: Test D dallisgrass; format: in vivo, Paspalum dilatatum
From the text: as §1, §2

Johnson grass = assay: Test D Johnson grass; format: in vivo, Sorghum halepense
Outline: as §3

Spanishneedles = assay: Test D Spanishneedles; format: in vivo, Bidens bipinnata
From the text: as §1, §2

common pursiane = assay: Test D common purslane; format: in vivo, Portulaca oleracea
Outline: as §3

bermuda-grass = assay: Test D bermudagrass; format: in vivo, Cynodon dactylon
From the text: as §1, §2

large crabgrass = assay: Test D large crabgrass; format: in vivo, Digitaria sanguinalis
Outline: as §3

goosegrass = assay: Test D goosegrass; format: in vivo, Eleusine indica
From the text: as §1, §2

pitted morningglory = assay: Test D pitted morningglory; format: in vivo, Ipomoea lacunosa
Outline: as §3

sandbur = assay: Test D sandbur; format: in vivo, Cenchrus echinatus
Outline: as §3

tall mallow = assay: Test D tall mallow; format: in vivo, Malva sylvestris
From the text: as §1, §2

[1] = Rate 16 g/ha, 0 no injury, 100 complete control
[2] = Rate 32 g/ha, 0 no injury, 100 complete control
[3] = Rate 64 g/ha, 0 no injury, 100 complete control
[4] = Rate 125 g/ha, 0 no injury, 100 complete control

Cc1ccccc1-n1c(=O)on(C(=O)N(c2ccc(F)cc2)C(C)C)c1=O [Compound 4]
Plant response rating, Purple nutsedge (purple nutsedge; [1]): 0 | Plant response rating, Purple nutsedge (purple nutsedge; [2]): 0 | Purple nutsedge plant response rating (purple nutsedge; [3]): 0 | Purple nutsedge plant response rating (purple nutsedge; [4]): 0 | Plant response rating, Purple nutsedge (purple nutsedge; Rate 250 g/ha): 0 | Plant response rating, Purple nutsedge (purple nutsedge; Rate 500 g/ha): 0 | Plant response rating, Alexandergrass (Alexandergrass; [1]): 20 | Plant response rating, Alexandergrass (Alexandergrass; [2]): 20 | Plant response rating, Alexandergrass (Alexandergrass; [3]): 80 | Plant response rating, Alexandergrass (Alexandergrass; [4]): 80 | Plant response rating, Alexandergrass (Alexandergrass; Rate 250 g/ha): 90 | Plant response rating, Alexandergrass (Alexandergrass; Rate 500 g/ha): 100 | Plant response rating, Guineagrass (guineagrass; [1]): 20 | Plant response rating, Guineagrass (guineagrass; [2]): 20 | Plant response rating, Guineagrass (guineagrass; [3]): 50 | Plant response rating, Guineagrass (guineagrass; [4]): 90 | Plant response rating, Guineagrass (guineagrass; Rate 250 g/ha): 100 | Plant response rating, Guineagrass (guineagrass; Rate 500 g/ha): 100 | Plant response rating, Surinam grass (surinam grass; [1]): 0 | Plant response rating, Surinam grass (surinam grass; [2]): 0 | Surinam grass plant response rating (surinam grass; [3]): 65 | Surinam grass plant response rating (surinam grass; [4]): 90 | Plant response rating, Surinam grass (surinam grass; Rate 250 g/ha): 85 | Plant response rating, Surinam grass (surinam grass; Rate 500 g/ha): 98 | Plant response rating, Dallisgrass (dallisgrass; [1]): 75 | Plant response rating, Dallisgrass (dallisgrass; [2]): 85 | Plant response rating, Dallisgrass (dallisgrass; [3]): 90 | Plant response rating, Dallisgrass (dallisgrass; [4]): 98 | Plant response rating, Dallisgrass (dallisgrass; Rate 250 g/ha): 98 | Plant response rating, Dallisgrass (dallisgrass; Rate 500 g/ha): 98 | Plant response rating, Johnsongrass (Johnson grass; [1]): 0 | Plant response rating, Johnsongrass (Johnson grass; [2]): 0 | Plant response rating, Johnsongrass (Johnson grass; [3]): 30 | Plant response rating, Johnsongrass (Johnson grass; [4]): 0 | Plant response rating, Johnsongrass (Johnson grass; Rate 250 g/ha): 30 | Plant response rating, Johnsongrass (Johnson grass; Rate 500 g/ha): 30 | Plant response rating, Spanishneedles (Spanishneedles; [1]): 0 | Spanishneedles plant response rating (Spanishneedles; [3]): 0 | Spanishneedles plant response rating (Spanishneedles; [4]): 40 | Plant response rating, Spanishneedles (Spanishneedles; Rate 500 g/ha): 0 | Plant response rating, C. purslane (common pursiane; [1]): 0 | Plant response rating, C. purslane (common pursiane; [2]): 0 | Plant response rating, C. purslane (common pursiane; [3]): 0 | Plant response rating, C. purslane (common pursiane; [4]): 0 | Plant response rating, C. purslane (common pursiane; Rate 250 g/ha): 0 | Plant response rating, C. purslane (common pursiane; Rate 500 g/ha): 0 | Plant response rating, Bermudagrass (bermuda-grass; [1]): 0 | Plant response rating, Bermudagrass (bermuda-grass; [2]): 0 | Plant response rating, Bermudagrass (bermuda-grass; [3]): 0 | Plant response rating, Bermudagrass (bermuda-grass; [4]): 30 | Plant response rating, Bermudagrass (bermuda-grass; Rate 250 g/ha): 98 | Plant response rating, Bermudagrass (bermuda-grass; Rate 500 g/ha): 98 | Plant response rating, Large crabgrass (large crabgrass; [1]): 100 | Plant response rating, Large crabgrass (large crabgrass; [2]): 100 | Plant response rating, Large crabgrass (large crabgrass; [3]): 98 | Plant response rating, Large crabgrass (large crabgrass; [4]): 100 | Plant response rating, Large crabgrass (large crabgrass; Rate 250 g/ha): 100 | Plant response rating, Large crabgrass (large crabgrass; Rate 500 g/ha): 100 | Plant response rating, Goosegrass (goosegrass; [1]): 70 | Plant response rating, Goosegrass (goosegrass; [2]): 85 | Plant response rating, Goosegrass (goosegrass; [3]): 95 | Plant response rating, Goosegrass (goosegrass; [4]): 98 | Plant response rating, Goosegrass (goosegrass; Rate 250 g/ha): 98 | Plant response rating, Goosegrass (goosegrass; Rate 500 g/ha): 100 | Plant response rating, P. morninglory (pitted morningglory; [1]): 0 | Plant response rating, P. morninglory (pitted morningglory; [2]): 0 | Plant response rating, P. morninglory (pitted morningglory; [3]): 0 | Plant response rating, P. morninglory (pitted morningglory; [4]): 0 | Plant response rating, P. morninglory (pitted morningglory; Rate 250 g/ha): 0 | Plant response rating, P. morninglory (pitted morningglory; Rate 500 g/ha): 0 | Plant response rating, Sandbur (sandbur; [1]): 0 | Plant response rating, Sandbur (sandbur; [2]): 0 | Sandbur plant response rating (sandbur; [3]): 65 | Sandbur plant response rating (sandbur; [4]): 30 | Plant response rating, Sandbur (sandbur; Rate 250 g/ha): 90 | Plant response rating, Sandbur (sandbur; Rate 500 g/ha): 100 | Plant response rating, Tall Mallow (tall mallow; [1]): 0 | Plant response rating, Tall Mallow (tall mallow; [2]): 0 | Tall Mallow plant response rating (tall mallow; [3]): 0 | Tall Mallow plant response rating (tall mallow; [4]): 0 | Plant response rating, Tall Mallow (tall mallow; Rate 250 g/ha): 30 | Plant response rating, Tall Mallow (tall mallow; Rate 500 g/ha): 30
